One series addresses PRMT5/MEP50 (Homo sapiens, UniProt O14744). As to the kind of experiment: PRMT5/MEP50 radioactive assay, 3H transfer from SAM to H4 peptide / protein substrate. Type of series: biochemical. The settings on record: close analogs of Compound C.
Series [1] concerns Type I and Type II PRMTs and lysine methyltransferases (KMTs). As to the kind of experiment: Methyltransferase selectivity panel (19 enzymes). To be noted: for selectivity for PRMT5/MEP50 over the other methyltransferases: PRMT5 tool compounds. Type of series: biochemical. The text has this: FIG. 6: Phylogenetic tree highlighting the methyltransferases tested in the selectivity panel. […] PRMT9 is shown for relationship purposes only within the family tree and was not evaluated in the panel. Figure adapted from Richon V M. et al.
PRMT9/FBXO11, which is the other Type II PRMT and the only PRMT to lack the THW loop, was not included due to the lack of a functional enzyme assay.

Series [2] relates to breast and MCL cell lines. As to the kind of experiment: Longer-term (10-12 day) growth/death assay in breast and MCL cell lines. The class given is cell-based. To be noted: for response upon prolonged exposure: SKBR3, MDA-MB-468 and MCF-7 cells, 7-10 days.
Series [3] concerns SDMA, MDM4 splicing, p53 in GBM and lymphoma cell lines. The series is described as follows: SDMA, MDM4 splicing and p53 in GBM and lymphoma cell lines. To be noted: 1 μM. The class given is cell-based. The method, then: Next, effects on cellular methylation and the p53 pathway were evaluated in GBM cells treated with a PRMT5 inhibitor by measuring SDMA, p53 and p21 protein levels and MDM4 splicing (FIG. 27). […] Alternative MDM4 splicing was detected in all cell lines but SF539 which are p53 mutant and have low basal expression of the long MDM4 isoform (FIG. 27, panel A). p53 levels increased in all cell lines, while the induction of p21 protein was observed only in cell lines that have wild-type p53 (Z138 (MCL), U87-MG and A172 (GBM)). […] The role of p53 in the response of GBM cell lines to PRMT5 inhibition will be further tested in future studies. Additionally, the effects of PRMT5 inhibition on cell cycle and neural differentiation in GBM models are being explored.

The test system of series [4] is lymphoma cell lines (Z138, Granta-519, DOHH2, RL). As to the kind of experiment: RNA-sequencing of lymphoma cell lines. Type of series: cell-based. Here is the method:
FIG. 12: Gene expression changes in lymphoma cell lines treated with a PRMT5 inhibitor. A. Quantification of differentially expressed (DE) genes in lymphoma cell lines after Compound B (0.1 and 0.5 μM) treatment (days 2 and 4). B. Overlap of DE genes across lymphoma lines.
A. Mechanisms of regulation of cellular splicing (adapted from Bezzi M. et al.). B. Analysis of intron expression in lymphoma lines treated with 0.1 or 0.5 μM Compound B.
A. Quantification of isoform switches in 4 lymphoma cell lines treated with Compound B (0.1 and 0.5 μM) for 2 and 4 days. B. Overlap of isoform switches in 4 lymphoma lines. C. List of genes that undergo alternative splicing in all 4 lymphoma lines (overlap of 4 cell lines).
PRMT5 methylates histones and proteins involved in RNA processing and therefore PRMT5 inhibition is expected to have a profound effect on cellular mRNA homeostasis. To further decipher cellular mechanisms that are regulated by PRMT5 and contribute to the cellular response to PRMT5 inhibitors, global gene expression changes were evaluated in lymphoma models sensitive to PRMT5 inhibition. […]
First, gene expression changes were evaluated in lymphoma lines treated with increasing concentrations of PRMT5 tool molecule for 2 and 4 days (FIG. 12). […] The relevance of these genes in the mechanism of cellular response to PRMT5 inhibition is being evaluated. […]

Series [5] deals with panel of cancer cell lines. Type of series: cell-based. The text has this: DLBCL-diffuse large B-cell lymphoma, GBM-glioblastoma, MCL-mantle cell lymphoma, MM-multiple myeloma
The cell lines were selected to represent tumor types where PRMT5 activity has been reported to regulate key pathways and/or cell growth and survival (such as lymphoma and MCL, glioma, breast and lung cancer lines).

A further series has as its system MCL cell lines. The series is described as follows: 6-day growth/death assay in a panel of MCL lines. Type of series: cell-based. The text has this: FIG. 18: Activity of PRMT5 inhibitor and ibrutinib as single agents and in combination in MCL cell lines. […] C.
• The strongest mechanistic link currently described between PRMT5 and cancer is in MCL. PRMT5 is frequently overexpressed in MCL and is highly expressed in the nuclear compartment where it increases levels of histone methylation and silences a subset of tumor suppressor genes. Importantly, cyclin D1, the oncogene that is translocated in the vast majority of MCL patients, associates with PRMT5 and through a cdk4-dependent mechanism increases PRMT5 activity. PRMT5 mediates the suppression of key genes that negatively regulate DNA replication allowing for cyclin D1-dependent neoplastic growth. PRMT5 knockdown inhibits cyclin D1-dependent cell transformation causing death of tumor cells.

Series [6] relates to GBM cell lines. As to the kind of experiment: 2D 6-day growth/death CTG assay in GBM cell lines. The class given is cell-based. The settings on record: with the exception of SF539.
Series [7] relates to MDM4 splicing, p53 and p21 in MCL lines. The series is described as follows: MDM4 splicing (RT-PCR) and p53/p21 western in MCL lines. The class given is cell-based. To be noted: for p53 and p21 expression: Z138 cells, 200 nM Compound C, 5 μM Nutlin-3. Here is the method:
To understand whether p53 activation is associated with MDM4 isoform switching, MDM4 alternative splicing was analyzed. […] The role of the p53 pathway in the biology of the response of p53 wild-type MCL cells to PRMT5 inhibition is being evaluated.

The test system of series [8] is SDMA, MDM4 splicing, p53/p21 in Z138 cells. As to the kind of experiment: Dose-response of MDM4 splicing, SDMA and p53/p21 in Z138 cells. Type of series: cell-based.
The test system of another series is Z-138 MCL xenograft. The series is described as follows: 21-day efficacy study in Z-138 MCL xenograft model. The class given is in vivo. Here is the method: B. Quantified SDMA western data from tumors harvested at the end of the efficacy study (3 hours post last dose).
In another series the test system is breast cancer lines. The series is described as follows: Propidium iodide FACS cell cycle analysis of breast cancer lines. The class given is cell-based.
A further series relates to MDA-MB-468 xenograft. The series is described as follows: MDA-MB-468 triple negative breast cancer xenograft model. Type of series: in vivo. Here is the method: Next, the efficacy of PRMT5 inhibition was evaluated in in vivo models of breast cancer.
For series [9], the system named is GBM cell lines. The series is described as follows: 2D 14-day growth/death CTG assay in GBM cell lines. Type of series: cell-based. To be noted: only SF539 underwent apoptosis.
Setting [10] is: Z-138 (MCL) cells, all time points (days 3-10).
[11] abbreviates: ZR-75-1 cells, all time points (days 3-12).

Each structure is given as a SMILES string. A value given as a limit tells only on which side of the number the result lay.

Sequence of PRMT5/MEP50 (O14744 whole entry): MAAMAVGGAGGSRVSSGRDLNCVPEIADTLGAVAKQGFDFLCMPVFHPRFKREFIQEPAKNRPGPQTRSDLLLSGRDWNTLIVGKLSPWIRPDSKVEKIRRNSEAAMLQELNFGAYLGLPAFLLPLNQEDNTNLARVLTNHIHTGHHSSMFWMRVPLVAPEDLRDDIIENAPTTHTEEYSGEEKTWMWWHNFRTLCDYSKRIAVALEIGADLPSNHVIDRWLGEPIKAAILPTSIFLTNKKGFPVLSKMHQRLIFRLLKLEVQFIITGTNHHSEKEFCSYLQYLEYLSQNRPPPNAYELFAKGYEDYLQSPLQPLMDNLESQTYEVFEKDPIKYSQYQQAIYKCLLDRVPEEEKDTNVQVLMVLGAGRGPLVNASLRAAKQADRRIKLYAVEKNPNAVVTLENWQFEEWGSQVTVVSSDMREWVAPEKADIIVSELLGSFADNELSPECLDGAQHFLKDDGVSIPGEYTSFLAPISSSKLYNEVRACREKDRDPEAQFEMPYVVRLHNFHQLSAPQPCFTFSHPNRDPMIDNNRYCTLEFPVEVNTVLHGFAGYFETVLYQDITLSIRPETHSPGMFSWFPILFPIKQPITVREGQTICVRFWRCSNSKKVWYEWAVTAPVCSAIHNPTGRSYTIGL
Sequence of PRMT5/MEP50 (Q9BQA1 whole entry partner): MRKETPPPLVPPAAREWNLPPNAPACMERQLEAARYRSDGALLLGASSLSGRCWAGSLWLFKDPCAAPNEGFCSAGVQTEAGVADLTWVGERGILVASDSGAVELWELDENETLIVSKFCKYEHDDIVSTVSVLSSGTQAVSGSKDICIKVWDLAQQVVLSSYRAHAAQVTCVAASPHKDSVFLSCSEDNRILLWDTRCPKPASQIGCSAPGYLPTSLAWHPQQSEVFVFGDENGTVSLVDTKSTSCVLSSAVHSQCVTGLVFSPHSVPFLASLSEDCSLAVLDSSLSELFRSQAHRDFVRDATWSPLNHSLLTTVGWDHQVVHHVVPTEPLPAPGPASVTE

In the case of `O=C(NC[C@H](O)CN1CCc2ccccc2C1)c1ccnc(NC2CCC2)c1` [Compound B], the “inhibitory potency compared with Compound C” value on PRMT5/MEP50 is listed as “similar”. The “selectivity for PRMT5/MEP50 over the other methyltransferases” value (“selectivity for PRMT5/MEP50” for short) in [1] was “Selectivity for PRMT5/MEP50 over the other methyltransferases was also observed”. Moreover, the “response upon prolonged exposure” value in series [2] is given as “cytotoxic response”. Further, in series [2] (setting [10]), the response entry is reported as “profound overall net cell death”. In [2] (setting [11]), the response entry is on record as “cytostatic response”. Besides, in series [3], the MDM4 splicing entry is listed as “induces alternative splicing of MDM4”, the SDMA levels result is given as “decreases SDMA levels” and the p53 result was “activates p53”. The isoform switching result in series [4] (0.1 and 0.5 μM, 2 and 4 days) is recorded as “induces isoform switching for a subset of genes”. The intron splicing entry in series [4] (0.1 or 0.5 μM) is listed as “attenuates the splicing of a subset of introns”.
Consider `CC(=O)N1CCC(Nc2cc(C(=O)NC[C@H](O)CN3CCc4ccccc4C3)ncn2)CC1` [Compound C], for which the “potency for any other tested enzyme” value in series [1] (FIG. 6 legend) was > 10^−5 M. In addition, the “growth response of breast cancer cell lines” value in series [5] (6-day growth/death assay) is “complete growth inhibition”. The gIC50 result in series [5] (most sensitive lymphoma lines (MCL and DLBCL)) is “single digit”. Also, in the series with MCL cell lines, the “sensitivity (gIC50) of Z-138, Maver-1 and JVM-2” value was “low”; the “sensitivity of Mino, Jeko-1” value is recorded as “only moderately sensitive”. For the same molecule, in the series with GBM cell lines [6], the “nature of the response” value is “largely cytostatic”. For the same molecule, in [7] (Z138 and JVM-2 cells (both p53 wild-type)), the MDM4 isoform switching entry is “induced MDM4 isoform switching”. In addition, the “p53 and p21 expression” value in [7] is “increased p53 and p21 expression to similar levels”. Moreover, in series [8], the “MDM4 RNA splicing and SDMA/p53/p21 levels” value was “induces dose-dependent changes”; the “concentration above which SDMA levels were undetectable by Western blot” value is recorded as “above 8 nM”; the “concentration above which changes in MDM4 splicing and p53/p21 protein expression were apparent” value is “above 8 nM”. The body weight loss entry in the series with Z-138 MCL xenograft (all groups in all efficacy studies presented) is given as “no body weight loss”. Besides, the TGI (usually the reduction of tumour growth relative to the control group) in the series with Z-138 MCL xenograft (summary for the xenograft models of mantle cell lymphoma) is reported as ~100%. The “response upon prolonged exposure” value in series [2] is recorded as “cytotoxic response”. For the same molecule, in series [2] (setting [10]), the response entry is given as “profound overall net cell death”. In addition, the response entry in [2] (setting [11]) is on record as “cytostatic response”. Moreover, the “cell death (increase in <2N)” value in the series on breast cancer lines (3 out of 4 breast cancer lines, after 7-10 days of treatment) is on record as “induction of cell death”. In the series on breast cancer lines (MCF-7 cells (p53 wild-type), day 2), the cell cycle distribution result was “accumulation of cells in G1 phase (2N)”. For the same molecule, the cell cycle distribution entry with breast cancer lines (MDA-MB-468 and SKBR-3, day 7 or day 10) is listed as “decrease in G1 (2N) phase”. Moreover, the cell cycle distribution entry in the series with breast cancer lines (ZR-75-1 cells (p53 wild-type)) was “minor effects on cell cycle distribution”. Also, the “tumor growth inhibition (TGI)” value in the series with MDA-MB-468 xenograft (100 mg/kg BID) amounted to 83%. In addition, the efficacy result in the series on MDA-MB-468 xenograft (100 mg/kg QD) is on record as “not efficacious”. Also, the “nature of the cytostatic/cytotoxic response upon longer exposure” value in the series with GBM cell lines [9] is on record as “did not change”.
Consider `O=C(NC[C@H](O)CN1CCc2ccccc2C1)c1cc(NC2COC2)ncn1` [Compound E], for which the “inhibitory potency compared with Compound C” value at PRMT5/MEP50 is reported as “similar”. The “selectivity for PRMT5/MEP50” value in series [1] is reported as “Selectivity for PRMT5/MEP50 over the other methyltransferases was also observed”.
Turning to `CC(=O)N1CCC(Nc2cc(C(=O)NC[C@H](O)CN3CCc4ccccc4C3)ccn2)CC1` [Compound F], the “inhibitory potency compared with Compound C” value at PRMT5/MEP50 is “similar”. Further, the “selectivity for PRMT5/MEP50” value in [1] is reported as “Selectivity for PRMT5/MEP50 over the other methyltransferases was also observed”.
With `COc1ccc(C2=N[C@@H](c3ccc(Cl)cc3)[C@@H](c3ccc(Cl)cc3)N2C(=O)N2CCNC(=O)C2)c(OC(C)C)c1` [Nutlin-3, reference compound], the “p53 and p21 expression” value in series [7] is “increased p53 and p21 expression to similar levels”.

Source of the values: patent publication US20190350931A1, “COMBINATION THERAPY” (GlaxoSmithKline Intellectual Property Development Limited, priority 2016, published 2019).
